Where only a bound is given, the exact number is not on record here.

These results are taken from ChEMBL document CHEMBL1144958 (Bioorg Med Chem Lett, 2003).

Assay [1] concerns HEK293. The assay can be described thus: Binding affinity towards nicotinic acetylcholine receptor alpha7 - 5-hydroxytryptamine 3 receptor was determined in transfected HEK cells (alpha7) using [125I]-alpha-BgTx as radioligand. The class given is cell-based.
Assay [2] addresses Neuronal acetylcholine receptor; alpha4/beta2 (Rattus norvegicus, UniProt P09483+P12390). Kind of assay: Binding affinity towards alpha4-beta2 nicotinic receptor was determined in rat brain membrane using [3H]cytisine as radioligand. The class given is cell membranes.

Neuronal acetylcholine receptor; alpha4/beta2, sequence (P09483 whole entry): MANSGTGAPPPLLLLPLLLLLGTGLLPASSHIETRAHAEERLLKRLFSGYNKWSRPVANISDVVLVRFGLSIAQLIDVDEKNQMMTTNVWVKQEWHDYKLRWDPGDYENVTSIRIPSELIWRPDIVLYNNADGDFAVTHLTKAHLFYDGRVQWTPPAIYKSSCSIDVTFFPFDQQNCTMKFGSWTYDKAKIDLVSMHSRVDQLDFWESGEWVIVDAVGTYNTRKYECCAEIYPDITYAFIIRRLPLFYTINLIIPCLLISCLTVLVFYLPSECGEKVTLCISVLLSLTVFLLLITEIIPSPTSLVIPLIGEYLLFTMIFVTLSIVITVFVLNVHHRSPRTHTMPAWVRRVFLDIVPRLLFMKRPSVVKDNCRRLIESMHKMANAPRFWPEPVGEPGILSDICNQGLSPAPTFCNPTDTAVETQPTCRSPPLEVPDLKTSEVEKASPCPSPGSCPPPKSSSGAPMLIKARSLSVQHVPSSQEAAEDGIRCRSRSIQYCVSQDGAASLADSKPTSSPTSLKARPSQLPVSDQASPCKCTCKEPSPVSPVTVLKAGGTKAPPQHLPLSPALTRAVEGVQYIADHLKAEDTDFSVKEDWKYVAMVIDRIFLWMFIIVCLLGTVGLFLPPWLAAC
Neuronal acetylcholine receptor; alpha4/beta2, sequence (P12390 whole entry): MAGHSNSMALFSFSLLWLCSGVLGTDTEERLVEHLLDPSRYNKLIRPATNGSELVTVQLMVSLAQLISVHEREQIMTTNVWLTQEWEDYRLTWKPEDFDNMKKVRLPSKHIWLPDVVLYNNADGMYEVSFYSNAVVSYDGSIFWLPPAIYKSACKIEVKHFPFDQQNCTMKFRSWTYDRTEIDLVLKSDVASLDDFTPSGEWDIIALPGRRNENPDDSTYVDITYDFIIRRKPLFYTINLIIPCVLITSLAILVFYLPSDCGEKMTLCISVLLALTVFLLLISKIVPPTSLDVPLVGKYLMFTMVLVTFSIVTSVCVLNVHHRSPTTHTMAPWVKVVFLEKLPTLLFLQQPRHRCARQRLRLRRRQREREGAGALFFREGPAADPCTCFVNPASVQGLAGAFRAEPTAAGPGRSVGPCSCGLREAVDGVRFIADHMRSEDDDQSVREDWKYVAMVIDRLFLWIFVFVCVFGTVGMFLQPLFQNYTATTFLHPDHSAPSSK

Consider `Clc1ccc(C2CC3CCC2N3)cn1` (configuration not stated), for which the binding affinity in assay [1] came out at 0.075 µM.

In the case of `COC(=O)Nc1ccc(C2CC3CCC2N3)cn1` (configuration not stated), in assay [2], the Ki (usually a dissociation constant, usually derived from enzyme kinetics or from competition with a known ligand) turned out to be 8100 nM. Moreover, the binding affinity in assay [1] was above 1000 µM.

On to `O=C(CCl)Nc1ccc(C2CC3CCC2N3)cn1` (configuration not stated), for which the affinity in assay [2] corresponds to a Ki of 16.3 nM. In addition, the binding affinity in assay [1] worked out at 23 µM.

Take `Clc1ncc(C2CC3CCC2N3)cn1` (configuration not stated): the Ki in assay [2] was found to be 0.31 nM. The same compound yielded a binding affinity in assay [1] of 0.76 µM.
